Key:
CD5 = experiment: Surface antigen expression on primary B cells from healthy donors, MM or CLL patients; type: cell-based, human; details: 24 h exposure
Excerpt: (§1) The ability of bryostatin-1 at multiple concentrations to modulate the surface expression of multiple antigens (CD5, CD19, CD20, CD22, CD37, CD200/OX2 and CD269/BCMA) at two time points on primary B cells from healthy donors (2 donors) or patients with multiple myeloma (2 patients, MM) or chronic lymphocytic leukemia (4 patients, CLL) was investigated.

CD22 [1] = experiment: as above; type: cell-based, human
Excerpt: as §1

CD19 = experiment: as above; type: cell-based, human; details: 72 h exposure
Excerpt: as §1

CD269 (BCMA) = experiment: Flow cytometry of surface protein expression, NCI-H929 cell line stimulated with bryostatin-1; type: cell-based, human; details: NCI-H929 (MM) cells; bryostatin-1 0.001-1 nM, 24 or 72 hours; FIG. 1C
Excerpt: (§2) Bryostatin-1 has been examined in numerous tumor cell lines representing various hematological tumor types. Surface protein target expression was examined by flow cytometry with human cell lines stimulated with different concentrations of bryostatin-1. Human cell lines representative of different hematological disease indications of leukemia/lymphoma (Toledo, REH, DB), multiple myeloma (NCI-H929, U266B1, RPMI8226), and acute myeloid leukemia (Kasumi-1, AML-193, THP1) were used as target cell lines. Each cell line was treated with bryostatin-1 at 0.001, 0.01, 0.1, or 1 nM for either 24 hours or 72 hours in duplicate prior to measuring the surface molecule expression, quantitatively, of the following protein antigens by flow cytometry: CD19, CD20, CD22, CD33, CD37, CD38, CD123, CD269 (BCMA), and isotype control. Bryostatin-1 caused an upregulation of some antigens and not others.

[2] = tested on: tumor cells derived from relapsed, low-expressing TAA patients; experiment: PDX model with CD22-directed CAR-T and bryostatin-1; type: in vivo; details: bryostatin-1 administered on Day 45 after CD22-directed CAR-T cells on Day 42
CD123 = experiment: Flow cytometry of surface protein expression, AML193 cell line stimulated with bryostatin-1; type: cell-based, human; details: AML193 (AML) cells; bryostatin-1 0.001-1 nM, 24 or 72 hours; FIG. 1B
Excerpt: as §2

CD22 [3] = experiment: Flow cytometry of surface protein expression, REH cell line stimulated with bryostatin-1; type: cell-based, human; details: REH (ALL) cells; bryostatin-1 0.001-1 nM, 24 or 72 hours; FIG. 1A
Excerpt: as §2

[4] = primary B cells of CLL patients
[5] = primary B cells of healthy donors

CCC/C=C/C=C/C(=O)O[C@H]1/C(=C/C(=O)OC)C[C@H]2C[C@H]([C@@H](C)O)OC(=O)C[C@H](O)C[C@@H]3C[C@H](OC(C)=O)C(C)(C)[C@](O)(C[C@@H]4C/C(=C/C(=O)OC)C[C@H](/C=C/C(C)(C)[C@]1(O)O2)O4)O3 [bryostatin-1, Bryostatin-1]
CD5 expression (CD5; [4]): not
CD5 expression (CD5; primary B cells of MM patients): increases
CD5 expression (CD5; [5]): not
CD22 expression (CD22 [1]; [4]): upregulated
CD22 expression (CD22 [1]; primary B cells of MM patients): not
CD22 expression (CD22 [1]; [5]): upregulated
CD19 expression (CD19; [4]): increases
CD19 expression (CD19; primary B cells of MM patients): not
CD19 expression (CD19; [5]): increases
CD269 (BCMA) cell surface expression (CD269 (BCMA)): upregulated
Tumor response [2]: induced the tumors to respond
CD123 cell surface expression (CD123): upregulated
CD22 cell surface expression (CD22 [3]): upregulated

— patent publication US20240058302A1, “METHOD OF INDUCTION OF TUMOR ASSOCIATED ANTIGENS WITH BRYOSTATIN” (BryoLogyx Inc., priority 2019, published 2024)
